Data from patent US12358904B2, “Inhibitors of TYK2” (Atomwise Inc., priority 2023, dated 2025).

Key:
IL-6/pSTAT3 = test: IL-6 induced pSTAT3 assay in TF-1 cells; type: cell-based; conditions: Homo sapiens, read-out: Cellular selectivity (IL-6/pSTAT3)
Description: The following example describes the IL-6 induced pSTAT3 assay used to determine the cellular selectivity (IL-6/pSTAT3) of the TYK2 inhibitors.
TF-1 (ATCC®, CRL-2003™) cells were cultured in RPMI 1640 Medium, with GlutaMAX™ Supplement, HEPES for Cell Culture (Life Technologies, 72400047), 10% Fetal Bovine Serum (Life Technologies, 26400044), 2 ng/mL human recombinant GM-CSF (Life Technologies, PHC2013), 1 mM Sodium pyruvate (Life Technologies, 11360039), 1% MEM NEAA (Life Technologies, 11140-035), 1% Penicillin/Streptomycin (Life Technologies, 15140-122).
TF-1 (70×10^6) cells were starved overnight in T01 50 flasks (Opti-MEM™ I Reduced Serum Medium, no phenol red (Life Technologies, 11058-021), 1 mM Na pyruvate (Life Technologies, 11360039), 1% MEM NEAA (Life Technologies, 11140-035), and 1% Penicillin/Streptomycin (Life Technologies, 15140-122)) then seeded into 96-well TPP plates (150 000 cell/well) and incubated with test compounds (Final Concentration [nM] 10000-0.05) for 30 minutes at 37° C. […] Stimulation was terminated by addition of lysis buffer (MSD K150SVD) and pSTAT3 detection was measured with Phospho-STAT3 (Tyr705) Kit MSD K150SVD)) according to manufacturer's instruction. Briefly, cell lysates were added to pre-blocked plates, sealed, and shake for 1 hour at room temperature. Plates were then washed and incubated with detection antibody for 1 hour at room temperature. After washing, Read Buffer was added, and plates were read on MSD instrument (Model 1300 MSD Quickplex SQ 120).

IL-12/pSTAT4 = test: IL-12 induced pSTAT4 assay in NK-92 cells; type: cell-based; conditions: Homo sapiens, NK92, IL-12 stimulation, read-out: Cellular potency (IL-12/pSTAT4)
How it was run: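 Overnight-starved NK-92 cells (20K/well) pre-incubated with compounds (1000 to 0.05 nM final) 30 min at 37 °C, then stimulated with IL-12 (10 ng/ml) for 30 min at 37 °C. Lysates assayed for pSTAT4 (Tyr693) by MSD electrochemiluminescence.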

TYK2-JH2 = biological target: T1, TYK2-JH2 (Homo sapiens, UniProt P29597); test: TYK2-JH2 HTRF binding assay (ligand efficiency); conditions: calculated from IC50 of the TYK-JH2 binding assay (Equation 1)
T1 construct: TYK JH2 enzyme mix (ChemPartnec CP20210818A-BV); purchased ChemPartner CP20210818A-BV
How it was run: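 His-tagged TYK2 JH2 (0.5 nM) preincubated 10 min at RT with compound (0.1–0.000005 μM) in 20 mM HEPES pH 7.5, 10 mM MgCl2, 0.01% Triton X-100, 1 mM DTT; then 35 nM tracer plus anti-6HIS Tb cryptate, 60 min RT. TR-FRET read (Ex340/Em495/520); IC50 converted to ligand efficiency.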

GM-CSF/pSTAT5 = test: GM-CSF induced pSTAT5 assay in CellSensor irf1-bla TF-1 cells; type: cell-based; conditions: Homo sapiens, GM-CSF 1 ng/mL, read-out: Cellular selectivity (GM-CSF induced pSTAT5)
Description: The CellSensor irf1-bla TF-1 cell line (LifeTechnologies, K1657) was cultured in RPMI 1640 Medium (Invitrogen 72400-047), 10% Fetal Bovine Serum (Invitrogen, 26400044), 1 mM Sodium pyruvate (Life Technologies, 11360039), 1% MEM NEAA (Life Technologies, 11140-035), 2 ng/ml of human recombinant GM-CSF (Fisher, PHC2015), 1% Penicillin/Streptomycin (Life Technologies, 15140-122) and 5 μg/ml of Blasticidin (ThermoFisher, A1113903).
The cell line was seeded in a T75 flask at 13×10^6 cells/50 mL in starvation medium (Opti-MEM™ I Reduced Serum Medium, no phenol red (Life Technologies, 11058-021), 1 mM Na pyruvate (Life Technologies, 11360039), 1% MEM NEAA (Life Technologies, 11140-035), and 1% Penicillin/Streptomycin (Life Technologies, 15140-122)) for 16 hours at 37° C. under 5% CO2 the day before the assay.
For the assay, CellSensor irf1-bla TF-1 cells were seeded at 30 000 cells/32 μL (starvation medium)/well in a 384-well plate.
Compounds were added on the cells in 4 μL (starvation medium)/well at 10× the final concentration. They were incubated for 30 minutes at 37° C.
Human recombinant carrier-free GM-CSF (ThermoFisher, ref PHC2015) was added to the wells in 4 μL (starvation medium)/well at 10×. The final concentration was 1 ng/mL. Control wells without GM-CSF treatment were added. Plates were incubated for 5 hours at 37° C.
6× LiveBlazer-FRET substrate (Invitrogen, K1085) was added to the wells at 8 μL/well. The substrate was prepared shortly before use by mixing 6 μL of solution A and 60 μL of solution B to 934 μL of solution C. Plates were incubated for 2.5 hours at room temperature in the dark. The plates were read on an Envision (Perkin Elmer) with an excitation at a wavelength of 409 nm and two wavelengths for the emission 520 nm and 450 nm. The ratio between the […] emission was used to calculate the IC50s.
The IC50 for the inhibition of pSTAT5 was calculated with the Xlfit software using the 4 Parameter Logistic Model or Sigmoidal Dose-Response Model (model 205).

[1] = Brain exposure pharmacokinetic study in mice; type: in vivo, mouse; conditions: male C57BL/6 mice, oral gavage 5 mg/kg, plasma
Description: The brain exposure of 18 was evaluated in male C57BL/6 mice after oral gavage administration at 5 mg/kg. The formulation was 10% DMSO+40% PEG400 in saline. Mice were provided free access to food and water without fasting. Terminal sample collection of plasma and brain tissue were collected at […], 0.25, 0.5, 1, 2, and 4 hours post-dose with n=3 at each timepoint.
(§1) For both rat and mouse studies, brain tissue was washed with 3 volumes of saline prior to homogenization. Brain tissue was homogenized with 3 volumes (v/w) of phosphate buffered saline. Plasma, brain homogenate, and CSF samples (rat only) were analyzed by LC-MS/MS and the concentration of test compound at each time point was determined by linear regression.
(§2) Pharmacokinetic parameters were calculated from the plasma, brain, and CSF concentrations by non-compartmental modeling using WinNonlin 8.2.

[2] = Brain exposure pharmacokinetic study in rats; type: in vivo, rat; conditions: male Sprague Dawley rats, oral gavage 10 mg/kg, plasma, CSF
Description: The brain exposure of exemplary compounds, e.g., 1, 2, and 4 were evaluated in male Sprague Dawley rats after oral gavage administration at 10 mg/kg. The formulation was 5% DMSO+10% PEG400 in saline. Rats were fasted overnight with food returned 4 hours post-dose. CSF was collected by direct needle puncture into the cisterna magna.
as §1, §2

T1 sequence (P29597 589-875 limits assumed): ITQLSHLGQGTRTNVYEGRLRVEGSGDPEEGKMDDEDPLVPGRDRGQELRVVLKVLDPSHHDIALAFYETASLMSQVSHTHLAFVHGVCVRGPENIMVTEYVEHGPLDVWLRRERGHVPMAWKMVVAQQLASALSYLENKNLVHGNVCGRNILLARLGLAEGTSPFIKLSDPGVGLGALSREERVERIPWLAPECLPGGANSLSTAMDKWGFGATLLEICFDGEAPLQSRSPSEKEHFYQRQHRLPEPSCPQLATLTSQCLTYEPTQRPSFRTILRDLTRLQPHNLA

SMILES | IC50 (IL-6/pSTAT3) | IC50 (IL-12/pSTAT4) | Ligand Efficiency (TYK2-JH2) | IC50 (GM-CSF/pSTAT5) | Brain Kpu, u [1] | Brain Kpu, u [2]
Cc1cccc(Nc2cc(Nc3ncccc3S(C)(=O)=O)ncn2)n1 [Compound 18, N^4-(6-methylpyridin-2-yl)-N^6-(3-(methylsulfonyl)99yridine-2-yl) pyrimidine-4,6-diamine] | < 4 µM | < 0.1 µM | ††† (†††: >0.39) | > 10 µM | ††† (††† >0.2u) | –
C[C@@H](c1ccc(Nc2cc(Nc3ncccc3S(C)(=O)=O)ncn2)nc1)N(C)C [Compound 4, (S)—N^4-(5-(1-(dimethylamino)ethyl)79yridine-2-yl)-N^6-(3-(methylsulfonyl) 79yridine-2-yl) pyrimidine-4,6-diamine] | 4 to 10 µM | < 0.1 µM | ††† (†††: >0.39) | > 10 µM | – | ††† (††† >0.2u)
C[C@@H](c1ccc(Nc2cc(Nc3ncc(F)cc3S(C)(=O)=O)ncn2)nc1)N1CC2(COC2)C1 [Compound 2, (S)—N^4-(5-(1-(2-oxa-6-azaspiro[3.3]heptan-6-yl)ethyl)75yridine-2-yl)-N^6-(5-fluoro-3-(methylsulfonyl)75yridine-2-yl)pyrimidine-4,6-diamine] | > 10 µM | < 0.1 µM | ††† (†††: >0.39) | > 10 µM | – | † († <0.1u)
